The subject of assay [1] is Rattus norvegicus. As to the kind of experiment: Androgenic activity in sc dosed ORX rat model assessed as increase in hepatic carnitine palmitoyltransferase1 expression after 11 days by RT-PCR analysis relative to sham control. It is filed as functional.
Assay [2] addresses T1, Androgen receptor (Homo sapiens) (UniProt P10275).
T1 sequence (whole entry): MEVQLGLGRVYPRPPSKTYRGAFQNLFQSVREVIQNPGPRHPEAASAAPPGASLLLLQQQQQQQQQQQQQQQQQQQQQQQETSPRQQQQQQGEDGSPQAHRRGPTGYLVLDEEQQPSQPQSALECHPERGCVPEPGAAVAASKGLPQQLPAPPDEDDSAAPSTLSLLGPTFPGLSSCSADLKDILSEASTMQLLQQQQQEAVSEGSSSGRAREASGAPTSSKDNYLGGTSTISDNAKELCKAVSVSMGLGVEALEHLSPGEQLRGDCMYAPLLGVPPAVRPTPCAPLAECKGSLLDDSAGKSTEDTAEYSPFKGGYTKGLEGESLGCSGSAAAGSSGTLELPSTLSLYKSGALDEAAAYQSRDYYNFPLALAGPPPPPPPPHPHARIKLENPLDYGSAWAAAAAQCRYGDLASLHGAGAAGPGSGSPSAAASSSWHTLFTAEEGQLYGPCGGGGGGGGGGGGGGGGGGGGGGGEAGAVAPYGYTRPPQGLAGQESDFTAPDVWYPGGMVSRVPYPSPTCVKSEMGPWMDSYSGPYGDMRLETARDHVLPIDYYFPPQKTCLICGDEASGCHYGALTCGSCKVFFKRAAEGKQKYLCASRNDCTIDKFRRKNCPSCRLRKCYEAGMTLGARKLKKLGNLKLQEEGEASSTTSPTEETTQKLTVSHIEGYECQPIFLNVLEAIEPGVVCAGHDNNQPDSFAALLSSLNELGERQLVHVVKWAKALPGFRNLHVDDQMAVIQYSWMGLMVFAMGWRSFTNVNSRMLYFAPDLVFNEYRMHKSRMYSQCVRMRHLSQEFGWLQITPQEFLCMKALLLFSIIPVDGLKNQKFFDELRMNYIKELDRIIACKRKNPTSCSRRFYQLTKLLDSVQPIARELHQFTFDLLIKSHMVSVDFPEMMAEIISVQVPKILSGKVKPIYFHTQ
In words: Agonist activity at human AR expressed in African green monkey CV1 cells assessed as supression of beta-catenin at 1000 nM after 17 hrs by Wnt 12xTcf-luciferase reporter gene assay relative to control. It is filed as cell-based. The following applies: CV-1.

Assay [3] has as its target T2, Androgen receptor (Homo sapiens, UniProt P10275).
T2 sequence (P10275 whole entry): T1 sequence (whole entry)
In words: Displacement of [3H]mibolerone from human AR expressed in COS cells after 3.5 hrs by liquid scintillation counting analysis. Format: cell-based.

Assay [4] relates to Rattus norvegicus. As to the kind of experiment: Androgenic activity in ORX rat model assessed as effect on seminal vesicle weight at 3 to 30 mg/kg, sc qd after 11 days relative to sham control. Format: functional, organism-based.
The subject of assay [5] is Rattus norvegicus. As to the kind of experiment: Androgenic activity in ORX rat model assessed as reduction in plasma luteinizing hormone level at 30 mg/kg, sc qd after 11 days relative to sham control. More on the design: dose 30 mg/kg. Format: functional, organism-based.
In assay [6] the test system is Rattus norvegicus. In words: Androgenic activity in ORX rat model assessed as reduction in plasma luteinizing hormone level at 10 mg/kg, sc qd after 11 days relative to sham control. It is filed as functional, organism-based. Also on record: dose 10 mg/kg.
Assay [7] addresses T2, Androgen receptor. In words: Agonist activity at human AR expressed in African green monkey CV1 cells after 17 hrs by ARE-driven luciferase reporter gene assay. Format: cell-based, CV-1.
Assay [8] concerns Rattus norvegicus. As to the kind of experiment: Androgenic activity in ORX rat model assessed as restoration of hepatic hydroxyacid oxidase2 expression at 10 to 30 mg/kg, sc qd after 11 days by RT-PCR analysis relative to sham control. As to conditions: dose mg/kg 10-30; route subcutaneous. It is filed as functional.
The subject of assay [9] is Rattus norvegicus. In words: Androgenic activity in ORX rat model assessed as reduction in plasma luteinizing hormone level at 3 mg/kg, sc qd after 11 days relative to sham control. Format: functional, organism-based. More on the design: dose 3 mg/kg.
Assay [10] relates to Rattus norvegicus. In words: Androgenic activity in ORX rat model assessed as increase in prostate weight at 1 mg/kg, sc qd after 11 days relative to sham control. It is filed as functional, organism-based. Also on record: dose 1 mg/kg. The following applies: Prostate gland.
The test system of assay [11] is Rattus norvegicus. As to the kind of experiment: Androgenic activity in ORX rat model assessed as increase in hepatic carnitine palmitoyltransferase1 expression at 1 mg/kg, sc qd after 11 days by RT-PCR analysis relative to sham control. The following applies: route subcutaneous. Format: functional.
In assay [12] the test system is Rattus norvegicus. In words: Androgenic activity in ORX rat model assessed as increase in seminal vesicle weight at 1 mg/kg, sc qd after 11 days relative to sham control. It is filed as functional, organism-based. Also on record: dose 1 mg/kg.
Assay [13] concerns Rattus norvegicus. In words: Androgenic activity in ORX rat model assessed as reduction in plasma luteinizing hormone level at 1 mg/kg, sc qd after 11 days relative to sham control. It is filed as functional, organism-based. More on the design: dose 1 mg/kg.
The test system of assay [14] is Rattus norvegicus. As to the kind of experiment: Androgenic activity in ORX rat model assessed as increase in levator ani muscle weight at 1 mg/kg, sc qd after 11 days relative to sham control. It is filed as functional, organism-based. Also on record: dose 1 mg/kg.
Assay [15] concerns Rattus norvegicus. In words: Androgenic activity in ORX rat model assessed as restoration of hepatic hydroxyacid oxidase2 expression at 1 mg/kg, sc qd after 11 days by RT-PCR analysis relative to sham control. Also on record: dose 1 mg/kg. Format: functional, organism-based.

Calls of active or inactive are those of the source. The calls are words filed in the database; no cut-off is given here.

With `CN1C(=O)C(F)=C[C@]2(C)[C@H]3CC[C@]4(C)[C@@H](C(=O)NCc5nc6cccnc6[nH]5)CC[C@H]4[C@@H]3CC[C@@H]12` [MK-0773], the Activity result in assay [1] was “Dose-dependent effect”; in assay [2] it was 32%. Further, the “fold change (FC)” value in assay [1] was determined as 2; in assay [8], 2.5. The compound further yielded an IC50 in assay [3] of 196 nM. Also, the outcome in [4], in assay [5] and in assay [9] was inactive. Further, the result in [6] was Active. The compound also registered an EC50 in assay [7] of 144 nM.
With `CCC(=O)O[C@H]1CC[C@H]2[C@@H]3CCC4=CC(=O)CC[C@]4(C)[C@H]3CC[C@]12C` [TESTOSTERONE PROPIONATE], the outcome in assay [10], in assay [12], in assay [13], in [14] and in [15] was Active. The IC50 in [3] worked out at 18 nM. In [11], the “fold change (FC)” value was 2.

Values taken from ChEMBL document CHEMBL3217624, “Probing androgen receptor co-factor selectivity profiles: a chemical tool to determine cross-talk between androgen receptor and -catenin in vivo” (Medchemcomm, 2013).
